Test [1] has as its target human HDAC2 (Homo sapiens (Human), UniProt Q92769). The test can be described thus: HDAC2 inhibition assay (modified FLUOR DE LYS, 384-well). In kind it is biochemical. As to conditions: […] enzyme, 40 μM substrate BML-KI104, 3 h pre-incubation; read-out: HDAC2 IC50.
In test [2] the target is human HDAC8 (Homo sapiens (Human), UniProt Q9BY41). Briefly: HDAC8 inhibition assay (modified FLUOR DE LYS, 384-well). The format is biochemical. As to conditions: […] enzyme, 200 μM substrate BML-KI178, 3 h pre-incubation; read-out: HDAC8 IC50.
Test [3] concerns the target human HDAC1 (Homo sapiens (Human), UniProt Q13547).
Test [4] deals with human HDAC3/SMRT heterodimer (Homo sapiens (Human), UniProt O15379).
The target in test [5] is HDAC6 (Homo sapiens (Human), UniProt Q9UBN7).
Description: The histone deacetylase activities of HDAC1, HDAC2, HDAC3, HDAC6, and HDAC8 were measured in modified FLUOR DE LYS assays in 384-well format. In this assay, HDAC enzymes are initially incubated with an F-acetyl (or -trifluoroacetyl)-L-lysine-containing substrate with a C-terminal amide having aminomethylcoumarin as the amine component. HDACs cleave the F-acetyl group, rendering the resulting product susceptible to AMC cleavage by trypsin. The released AMC is then detected by its fluorescence. […] All steps were performed at room temperature (23° C.). The assay was performed by pre-incubating serial dilutions of test compounds with the target HDAC prior to initiation with substrate. […] Final conditions used for each assay were: 1. […] The reactions were stopped and developed by addition of 30 ul of HDAC developer solution containing a saturating level of HDAC inhibitor as follows: 1. […] For data analysis, background subtracted product (fluorescence) vs. time data for each inhibitor concentration was fitted using a 4-parameter fit.
Test [6] deals with KARN cells (Jurkat 2C4). Briefly: cells. Particulars: Homo sapiens.
The mark [7] stands for this setting: read-out: Karn EC50 nM 0.1% NHS, 0.1% normal human serum, luciferase induction, 2 μM SAHA = 100%.
Where [8] appears, read: read-out: Karn EC50 nM 5% NHS, 5% normal human serum, luciferase induction, 2 μM SAHA = 100%.

Like-named read-outs stand apart in the source and are kept apart here. Some results are limits rather than exact numbers.

Sequence of human HDAC1 (Q13547 whole entry): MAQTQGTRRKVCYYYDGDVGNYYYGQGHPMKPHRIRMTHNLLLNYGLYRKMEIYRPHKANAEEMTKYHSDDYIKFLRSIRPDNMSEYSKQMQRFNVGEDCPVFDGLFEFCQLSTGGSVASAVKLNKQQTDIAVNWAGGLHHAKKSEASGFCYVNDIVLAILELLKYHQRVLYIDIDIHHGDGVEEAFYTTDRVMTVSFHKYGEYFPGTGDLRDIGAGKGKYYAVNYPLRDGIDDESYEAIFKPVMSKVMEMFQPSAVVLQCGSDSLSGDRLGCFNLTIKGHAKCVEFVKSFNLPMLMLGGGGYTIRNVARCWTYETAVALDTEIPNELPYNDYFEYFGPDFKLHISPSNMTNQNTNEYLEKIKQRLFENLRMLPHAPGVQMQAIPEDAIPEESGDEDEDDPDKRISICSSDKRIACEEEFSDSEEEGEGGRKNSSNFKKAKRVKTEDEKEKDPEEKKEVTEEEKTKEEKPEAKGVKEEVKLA
Sequence of human HDAC2 (Q92769 whole entry): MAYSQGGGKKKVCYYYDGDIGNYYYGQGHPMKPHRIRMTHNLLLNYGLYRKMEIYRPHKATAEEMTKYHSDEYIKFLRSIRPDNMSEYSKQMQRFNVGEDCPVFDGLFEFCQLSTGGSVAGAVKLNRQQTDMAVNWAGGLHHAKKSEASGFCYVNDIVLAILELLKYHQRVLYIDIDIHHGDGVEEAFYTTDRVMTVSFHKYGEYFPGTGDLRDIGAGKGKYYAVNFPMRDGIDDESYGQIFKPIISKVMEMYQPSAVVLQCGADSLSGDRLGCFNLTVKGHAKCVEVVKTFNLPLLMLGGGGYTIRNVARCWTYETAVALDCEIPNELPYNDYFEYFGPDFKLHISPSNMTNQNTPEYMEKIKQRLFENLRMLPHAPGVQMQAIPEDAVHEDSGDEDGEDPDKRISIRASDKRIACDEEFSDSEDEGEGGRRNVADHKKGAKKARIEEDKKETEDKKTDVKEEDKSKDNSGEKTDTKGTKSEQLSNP
Sequence of human HDAC3/SMRT heterodimer (O15379 whole entry): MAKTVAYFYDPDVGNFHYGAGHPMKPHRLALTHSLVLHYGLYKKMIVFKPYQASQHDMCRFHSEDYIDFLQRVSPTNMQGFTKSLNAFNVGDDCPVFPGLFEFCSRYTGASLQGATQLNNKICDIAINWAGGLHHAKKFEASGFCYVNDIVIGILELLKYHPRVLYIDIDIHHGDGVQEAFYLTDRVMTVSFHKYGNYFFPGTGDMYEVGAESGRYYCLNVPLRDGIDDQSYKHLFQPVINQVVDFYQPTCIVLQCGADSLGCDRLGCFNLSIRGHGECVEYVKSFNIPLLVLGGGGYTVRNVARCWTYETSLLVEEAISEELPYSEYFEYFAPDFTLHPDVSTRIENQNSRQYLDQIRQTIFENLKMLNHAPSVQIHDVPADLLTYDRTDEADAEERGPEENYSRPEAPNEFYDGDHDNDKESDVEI
Sequence of human HDAC3/SMRT heterodimer (Q9Y618 1-899 partner): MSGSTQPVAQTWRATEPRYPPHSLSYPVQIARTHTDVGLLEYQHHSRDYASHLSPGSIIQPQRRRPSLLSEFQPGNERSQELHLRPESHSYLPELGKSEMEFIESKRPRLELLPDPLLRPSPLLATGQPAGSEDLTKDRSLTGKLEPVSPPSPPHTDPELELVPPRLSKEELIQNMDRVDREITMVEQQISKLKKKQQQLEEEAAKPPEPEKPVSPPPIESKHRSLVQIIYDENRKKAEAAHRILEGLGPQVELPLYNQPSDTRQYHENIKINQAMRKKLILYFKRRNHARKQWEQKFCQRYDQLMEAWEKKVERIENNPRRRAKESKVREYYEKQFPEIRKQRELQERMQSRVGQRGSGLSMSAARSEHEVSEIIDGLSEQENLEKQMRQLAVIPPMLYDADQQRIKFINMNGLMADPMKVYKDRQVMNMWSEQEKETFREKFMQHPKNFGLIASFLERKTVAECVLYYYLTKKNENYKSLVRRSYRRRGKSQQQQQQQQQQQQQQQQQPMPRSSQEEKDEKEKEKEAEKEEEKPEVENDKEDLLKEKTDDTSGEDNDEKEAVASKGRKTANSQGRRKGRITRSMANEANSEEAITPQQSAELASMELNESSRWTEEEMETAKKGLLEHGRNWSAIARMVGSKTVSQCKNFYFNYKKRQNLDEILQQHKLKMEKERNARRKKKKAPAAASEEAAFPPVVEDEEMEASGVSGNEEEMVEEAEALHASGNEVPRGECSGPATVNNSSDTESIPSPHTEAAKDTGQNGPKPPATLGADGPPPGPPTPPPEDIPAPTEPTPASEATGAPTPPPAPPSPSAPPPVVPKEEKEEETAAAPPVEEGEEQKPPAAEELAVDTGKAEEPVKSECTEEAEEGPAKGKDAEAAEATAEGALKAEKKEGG
Sequence of HDAC6 (Q9UBN7 whole entry): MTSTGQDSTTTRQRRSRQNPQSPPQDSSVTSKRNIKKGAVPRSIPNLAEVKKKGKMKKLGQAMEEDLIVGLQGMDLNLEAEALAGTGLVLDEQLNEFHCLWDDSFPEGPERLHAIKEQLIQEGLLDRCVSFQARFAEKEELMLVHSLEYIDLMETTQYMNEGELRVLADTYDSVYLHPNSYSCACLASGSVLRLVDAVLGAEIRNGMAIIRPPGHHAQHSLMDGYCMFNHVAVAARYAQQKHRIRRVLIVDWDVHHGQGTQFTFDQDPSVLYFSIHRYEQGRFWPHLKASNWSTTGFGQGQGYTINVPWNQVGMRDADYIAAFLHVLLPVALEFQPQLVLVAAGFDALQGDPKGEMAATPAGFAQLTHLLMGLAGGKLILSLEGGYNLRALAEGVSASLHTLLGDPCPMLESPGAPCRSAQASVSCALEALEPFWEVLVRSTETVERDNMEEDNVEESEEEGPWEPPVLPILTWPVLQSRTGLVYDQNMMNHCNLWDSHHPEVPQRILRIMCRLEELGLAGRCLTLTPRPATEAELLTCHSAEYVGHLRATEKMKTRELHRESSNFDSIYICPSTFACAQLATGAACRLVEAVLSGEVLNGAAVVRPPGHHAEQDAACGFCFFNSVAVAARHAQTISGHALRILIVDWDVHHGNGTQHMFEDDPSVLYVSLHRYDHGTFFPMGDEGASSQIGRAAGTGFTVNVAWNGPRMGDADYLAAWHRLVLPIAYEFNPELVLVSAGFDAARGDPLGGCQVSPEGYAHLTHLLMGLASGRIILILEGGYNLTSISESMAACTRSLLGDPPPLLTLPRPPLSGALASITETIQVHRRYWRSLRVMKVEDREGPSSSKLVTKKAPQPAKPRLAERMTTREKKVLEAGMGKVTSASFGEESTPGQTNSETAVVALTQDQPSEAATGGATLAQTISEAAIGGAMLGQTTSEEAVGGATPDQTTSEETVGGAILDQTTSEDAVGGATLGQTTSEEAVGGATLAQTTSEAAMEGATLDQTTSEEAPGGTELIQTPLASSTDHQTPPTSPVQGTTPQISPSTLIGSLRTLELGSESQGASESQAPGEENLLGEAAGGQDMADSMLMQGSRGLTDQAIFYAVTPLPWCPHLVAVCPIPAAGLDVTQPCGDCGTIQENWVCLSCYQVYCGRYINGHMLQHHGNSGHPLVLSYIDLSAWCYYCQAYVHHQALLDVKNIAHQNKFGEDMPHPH
Sequence of human HDAC8 (Q9BY41 whole entry): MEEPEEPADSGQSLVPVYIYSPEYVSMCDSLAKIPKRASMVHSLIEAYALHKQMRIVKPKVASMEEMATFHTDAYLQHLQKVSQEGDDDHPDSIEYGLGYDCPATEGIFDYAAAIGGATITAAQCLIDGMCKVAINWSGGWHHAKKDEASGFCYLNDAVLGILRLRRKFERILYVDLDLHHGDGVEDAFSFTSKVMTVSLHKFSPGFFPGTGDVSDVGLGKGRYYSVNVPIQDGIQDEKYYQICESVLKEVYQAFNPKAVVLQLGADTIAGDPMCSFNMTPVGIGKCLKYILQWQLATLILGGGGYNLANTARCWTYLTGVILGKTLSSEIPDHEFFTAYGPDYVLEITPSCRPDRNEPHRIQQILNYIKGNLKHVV

Turning to `CCN(CC)CC(=O)N[C@@H](CCCCCC(=O)c1ncco1)c1ncc(-c2cc3ccccc3nc2OC)[nH]1` [Example 50], the IC50 in test [1] came out at 3.2 nM; in test [2] it was 47 nM; in test [3], 0.99 nM; in test [4], 1.3 nM; in test [5] it was 1700 nM. Moreover, the EC50 in test [6] (setting [7]) is 21 nM; in test [6] (setting [8]) it was 140 nM.

`COc1nc2ccccc2cc1-c1cnc([C@H](CCCCCC(=O)c2ncco2)NC(=O)CN2CCC2)[nH]1` [Example 51]: the IC50 turned out to be 2.3 nM in test [1]; 31 nM in test [2]; 0.38 nM in test [3]; 0.66 nM in test [4]; 690 nM in test [5]. Also, the EC50 in test [6] (setting [7]) was 11 nM; in test [6] (setting [8]) it was 56 nM.

`COc1nc2ccccc2cc1-c1cnc([C@H](CCCCCC(=O)c2ncco2)NC(=O)CN2CCCCC2)[nH]1` [Example 53]: the IC50 in test [1] came out at 4.9 nM; in test [2], 92 nM; in test [3], 2.4 nM; in test [4], 1.6 nM; in test [5], 1100 nM. Also, the concentration for a half-maximal effect (EC50) in test [6] (setting [7]) was 26 nM; in test [6] (setting [8]) it was 220 nM.

For the compound `COc1cc2nc(C)ccc2cc1-c1cnc([C@H](CCCCCC(=O)c2cc(C)on2)NC(=O)CN(C)C)[nH]1` [Example 56], the IC50 in test [1] is 1.8 nM; in test [2], 310 nM; in test [3] it was 0.4 nM; in test [4] it was 0.37 nM; in test [5], 45000 nM. Further, the EC50 in test [6] (setting [7]) worked out at 6.4 nM; in test [6] (setting [8]) it was 11 nM.

On to `COc1cc2nc(C)ccc2cc1-c1cnc([C@H](CCCCCC(=O)c2cc(C)on2)NC(=O)C2CN(C)C2)[nH]1` [Example 57], for which the IC50 was found to be 1 nM in test [1]; 150 nM in test [2]; 0.23 nM in test [3]; 0.24 nM in test [4]; 45000 nM in test [5]. Besides, the values for the EC50 in test [6] (setting [7]) and in test [6] (setting [8]) were 5.5 nM and 13 nM, respectively.

As for `COc1cc2nc(C)ccc2cc1-c1cnc([C@H](CCCCCC(=O)c2cc(C)on2)NC(=O)C2CC23CCN(C)CC3)[nH]1` (stereo partly shown) [Example 58], the IC50 in test [1] was determined as 0.9 nM; in test [2] it was 120 nM; in test [3] it was 0.18 nM; in test [4], 0.18 nM; in test [5], 45000 nM. For the same compound, the values for the EC50 in test [6] (setting [7]) and in test [6] (setting [8]) were 6.8 nM and 11 nM, respectively.

`CN(C)C1(C(=O)N[C@@H](CCCCCC(=O)c2ccon2)c2ncc(-c3ccccc3F)[nH]2)CCC1` [Example 63]: the IC50 in test [1] is 2.1 nM; in test [2], 3.8 nM; in test [3], 0.54 nM; in test [4], 0.46 nM; in test [5] it was above 900 nM. Besides, the concentration for a half-maximal effect (EC50) in test [6] (setting [7]) was 11 nM; in test [6] (setting [8]), 32 nM.

Consider `CN(C)C1(C(=O)N[C@@H](CCCCCC(=O)c2ccon2)c2ncc(-c3ccccc3F)[nH]2)CCCC1` [Example 64], for which the IC50 was 2.1 nM in test [1]; 3.5 nM in test [2]; 0.58 nM in test [3]; 0.64 nM in test [4]; above 900 nM in test [5]. Further, the figures for the EC50 in test [6] (setting [7]) and in test [6] (setting [8]) were 16 nM and 28 nM, respectively.

Consider `CN[C@@H](CCCCCC(=O)c1ncco1)c1ncc(-c2ccc3nc(C)ccc3c2)[nH]1` [Example 75, (S)-7-(methylamino)-7-(5-(2-methylquinolin-6-yl)-1H-imidazol-2-yl)-1-(oxazol-2-yl)heptan-1-one], for which the IC50 in test [1] is 7 nM; in test [2], 3400 nM; in test [3], 2.4 nM; in test [4], 3.9 nM; in test [5] it was 26000 nM. For the same compound, the values for the EC50 in test [6] (setting [7]) and in test [6] (setting [8]) were 300 nM and 220 nM, respectively.

`COc1cc2nc(C)ccc2cc1-c1cnc([C@H](CCCCCC(=O)c2ncco2)NCc2ccccc2)[nH]1` [Example 82, (S)-7-(benzylamino)-7-(5-(7-methoxy-2-methylquinolin-6-yl)-1H-imidazol-2-yl)-1-(oxazol-2-yl)heptan-1-one]: the IC50 was determined as 7.8 nM in test [1]; 1800 nM in test [2]; 3.1 nM in test [3]; 2.7 nM in test [4]; 1500 nM in test [5]. Moreover, the EC50 worked out at 180 nM in test [6] (setting [7]) and 320 nM in test [6] (setting [8]).

Take `COc1cc2nc(C)ccc2cc1-c1cnc([C@H](CCCCCC(=O)c2ccon2)NC(=O)CN(C)C)[nH]1` [Example 91]: the IC50 amounted to 1.9 nM in test [1]; 14 nM in test [2]; 1.5 nM in test [3]; 1.5 nM in test [4]; 11000 nM in test [5]. Further, the EC50 was 17 nM in test [6] (setting [7]) and 22 nM in test [6] (setting [8]).

Consider `COc1cc2c(ccc(=O)n2C)cc1-c1cnc([C@H](CCCCCC(=O)c2ncco2)NC(=O)CN(C)C)[nH]1` [Example 92], for which the IC50 in test [1] was 6.2 nM; in test [2] it was 57 nM; in test [3], 0.92 nM; in test [4], 1.1 nM; in test [5] it was 4500 nM. In addition, the EC50 in test [6] (setting [7]) came out at 32 nM; in test [6] (setting [8]) it was 64 nM.

For `COc1cc2c(ccc(=O)n2C)cc1-c1cnc([C@H](CCCCCC(=O)c2ccon2)NC(=O)CN(C)C)[nH]1` [Example 93], the IC50 is 2.2 nM in test [1]; 3.5 nM in test [2]; 0.37 nM in test [3]; 0.46 nM in test [4]; 4500 nM in test [5]. In addition, the EC50 in test [6] (setting [7]) came out at 6.6 nM; in test [6] (setting [8]) it was 14 nM.

For `CCn1ccc2cc(-c3cnc([C@H](CCCCCC(=O)c4ncco4)NC(=O)CN(C)C)[nH]3)c(OC)cc2c1=O` [Example 96, (S)-2-(dimethylamino)-N-(1-(5-(2-ethyl-7-methoxy-1-oxo-1,2-dihydroisoquinolin-6-yl)-1H-imidazol-2-yl)-7-(oxazol-2-yl)-7-oxoheptyl)acetamide], the IC50 is 3.8 nM in test [1]; 57 nM in test [2]; 0.51 nM in test [3]; 0.94 nM in test [4]; 920 nM in test [5]. Moreover, the EC50 turned out to be 14 nM in test [6] (setting [7]) and 24 nM in test [6] (setting [8]).

Regarding `COc1cc2c(ccc(=O)n2C)cc1-c1cnc([C@H](CCCCCC(=O)c2ccon2)NC(=O)C2CN(C)C2)[nH]1` [Example 102, (S)-N-(7-(isoxazol-3-yl)-1-(5-(7-methoxy-1-methyl-2-oxo-1,2-dihydroquinolin-6-yl)-1H-imidazol-2-yl)-7-oxoheptyl)-1-methylazetidine-3-carboxamide], the IC50 is 0.78 nM in test [1]; 3.1 nM in test [2]; 0.24 nM in test [3]; 0.25 nM in test [4]; above 900 nM in test [5]. Also, the EC50 was 170 nM in test [6] (setting [7]) and 270 nM in test [6] (setting [8]).

Take `COc1cc2nc(C)ccc2cc1-c1cnc([C@H](CCCCCC(=O)c2ccon2)NC(=O)C2CN(C)C2)[nH]1` [Example 103, (S)-N-(7-(isoxazol-3-yl)-1-(5-(7-methoxy-2-methylquinolin-6-yl)-1H-imidazol-2-yl)-7-oxoheptyl)-1-methylazetidine-3-carboxamide]: the IC50 in test [1] was 0.44 nM; in test [2], 3 nM; in test [3] it was 0.13 nM; in test [4], 0.18 nM; in test [5] it was above 900 nM. For the same compound, the EC50 in test [6] (setting [7]) stood at 6 nM; in test [6] (setting [8]), 8.3 nM.

As for `CN1CCC2(CC1)C[C@@H]2C(=O)N[C@@H](CCCCCC(=O)c1ccon1)c1[nH]c(-c2ccccc2F)nc1Cl` [Example 112, (S)-N-((S)-1-(4-chloro-2-(2-fluorophenyl)-1H-imidazol-5-yl)-7-(isoxazol-3-yl)-7-oxoheptyl)-6-methyl-6-azaspiro[2.5]octane-1-carboxamide], the concentration for half-maximal inhibition (IC50) stood at 0.25 nM in test [1]; 23 nM in test [2]; 0.083 nM in test [3]; 0.035 nM in test [4]; 4600 nM in test [5]. In addition, the EC50 in test [6] (setting [7]) and in test [6] (setting [8]) was 1.4 nM in each case.

As for `COc1cc2nc(C)ccc2cc1-c1cnc([C@H](CCCCCC(=O)c2ncco2)NC(=O)[C@H]2CC23CCN(C)CC3)o1` [Example 113, (S)-N-((S)-1-(5-(7-methoxy-2-methylquinolin-6-yl)oxazol-2-yl)-7-(oxazol-2-yl)-7-oxoheptyl)-6-methyl-6-azaspiro[2.5]octane-1-carboxamide], the IC50 in test [1] was determined as 2.5 nM; in test [2], 180 nM; in test [3], 0.41 nM; in test [4], 0.58 nM; in test [5], 200 nM. Further, the EC50 worked out at 18 nM in test [6] (setting [7]) and 12 nM in test [6] (setting [8]).

Take `COc1nc(C2CC2)ccc1-c1c[nH]c([C@H](CCCCCC(=O)c2ncco2)NC(=O)[C@H]2CC23CCN(C)CC3)n1` [Example 115, (S)-N-((S)-1-(4-(6-cyclopropyl-2-methoxypyridin-3-yl)-1H-imidazol-2-yl)-7-(oxazol-2-yl)-7-oxoheptyl)-6-methyl-6-azaspiro[2.5]octane-1-carboxamide]: the IC50 stood at 3.9 nM in test [1]; 51 nM in test [2]; 0.66 nM in test [3]; 0.84 nM in test [4]; 300 nM in test [5]. Further, the EC50 was 37 nM in test [6] (setting [7]) and 58 nM in test [6] (setting [8]).

One may read the IC50 as the concentration needed to halve the response being measured. Broadly, the EC50 is the midpoint of the concentration-response curve.
